The values that follow are results of earlier work, collected in patent publication US20230226011A1, “Novel Pharmaceutical Composition Comprising Combination of Olopatadine and Nepafenac” (Zenvision Pharma LLP, priority 2020, published 2023).

Structures can show the parent of a compound that is named as a salt.

For the data set the following is noted: for solubility in water: solvent water.

Consider `NC(=O)Cc1cccc(C(=O)c2ccccc2)c1N` [Nepafenac, 2-amino-3-benzoylbenzeneacetamide], for which the solubility in water result was “practically insoluble”.

`CN(C)CC/C=C1/c2ccccc2COc2ccc(CC(=O)O)cc21` [Olopatadine hydrochloride, 11-[(Z)-3(Dimethylamino)propylidene]-6-11-dihydrodibenz[b,e] oxepin-2-acetic acid, hydrochloride]: the solubility in water result is recorded as “sparingly soluble”. Moreover, the solubility in chloroform entry (solvent chloroform) was “insoluble”. Moreover, the solubility in methanol result (solvent methanol) is “sparingly soluble”.
